Assay results from paper PMC3503319 (Biochemistry, 2010).

Target: Mtb DTBS (BioD) (Mycobacterium tuberculosis, UniProt P9WPQ5)
Sequence (P9WPQ5 whole entry): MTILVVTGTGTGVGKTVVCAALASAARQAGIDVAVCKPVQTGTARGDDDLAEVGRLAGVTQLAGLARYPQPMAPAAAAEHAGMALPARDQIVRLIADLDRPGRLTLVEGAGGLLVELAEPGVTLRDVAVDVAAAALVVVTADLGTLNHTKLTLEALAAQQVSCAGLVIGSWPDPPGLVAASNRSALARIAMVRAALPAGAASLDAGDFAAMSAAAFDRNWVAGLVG

With `C[C@H](N)[C@@H](CCCCCC(=O)O)NC(=O)O` [DAPA-carbamate] the “X-ray crystal structure, 2.05 Å (crystal soaked in 10 mM DAPA)” value was “additional electron density attached to the N7 atom of DAPA that fits the carbon dioxide”.
